# Results published in patent US20250082624A1, “METHODS OF TREATING COGNITIVE IMPAIRMENT” (NeuroTherapia, Inc., priority 2023, published 2025).
# Assay: Two-compartment PK model of NTRX-07 plasma data (fit and dose predictions)
# Parameters: species or system human
# Settings: compartmental PK model; for AUC24 h accumulation / Cmax accumulation: over 7 days
# Protocol: Predictive compartmental PK analysis was utilized during dose escalation to predict PK outcomes at higher dose levels based on data from lower ones.
# FIGS. 22A and 22B show the mathematical model with a simultaneous fit to data from all four cohorts (excluding fed subject data).
# Compartmental analysis was performed using a two-compartment model with extravascular administration. Modeling was performed using a sophisticated MS Excel workbook developed by PharmaDirections.
# FIGS. 24A-B show the mathematical model (heavy blue line) fit to the Cohort A data. The model will be further refined as data from additional cohorts become available. In particular, the terminal slope may change some, as the current data set is inadequate to define it. The model was built based on geometric mean data, but timepoint data were not used in cases where plasma concentrations were below the limit of quantitation for four or more of the six subjects.
# Note that the model estimates are somewhat higher than those obtained from non-compartmental analysis since they consider the entire dosing interval as opposed to only the time points for which data are available.
# These predictions are based on an assumption of linear PK across the specified dose range, and parameters could be underestimated if a saturable process limits bioavailability or is involved in drug clearance. Current data are insufficient to determine whether any saturable processes are involved in NTRX-007 uptake or clearance.
# Compartmental analysis was performed based on a two-compartment model with extravascular administration. Modeling was performed using a sophisticated MS Excel workbook developed by PharmaDirections. Geometric mean data from Cohorts A and B were used to determine weighted least squares best fits for the PK parameters.
# FIGS. 26A-26B show the mathematical model (heavy blue line) fit to the Cohort B data. The model was built based on geometric mean data, but timepoint data were not used in cases where plasma concentrations were below the limit of quantitation for four or more of the seven subjects.
# Compartmental analysis was performed based on a two-compartment model with extravascular administration. Modeling was performed using a sophisticated MS Excel workbook developed by PharmaDirections. Geometric mean data from Cohorts A, B, and C were used to determine weighted least squares best fits for the PK parameters.
# The model predicts somewhat higher exposure for b.i.d. dosing.
# Compartmental analysis was performed based on a two-compartment model with extravascular administration. Modeling was performed using a sophisticated MS Excel workbook developed by PharmaDirections. Geometric mean data from Cohorts A, B, C, and D were used to determine weighted least squares best fits for the PK parameters.
smiles,measurement,setting,value
"CC1(Cc2ccccc2)COc2cc(C(=O)N3CCCCC3)ccc21 (stereo not shown) [NTRX-07, 3-benzyl-3-methyl-2,3-dihydrobenzofuran-6-carboxylic acid-piperidine amide]",AUC24 h,"40 mg SDD QD, Day 1",96 ng·h/mL
same,Cmax,"40 mg SDD QD, Day 1",43.9 ng/mL
same,Cmin,"40 mg SDD QD, Day 1",0.0 ng/mL
same,Tmax,"40 mg SDD QD, Day 1",4.8 min
same,AUC24 h,"40 mg SDD QD, Day 2",100 ng·h/mL
same,Cmax,"40 mg SDD QD, Day 2",44.3 ng/mL
same,Cmin,"40 mg SDD QD, Day 2",0.4 ng/mL
same,Tmax,"40 mg SDD QD, Day 2",4.8 min
same,AUC24 h,"40 mg SDD QD, Day 3",101 ng·h/mL
same,Cmax,"40 mg SDD QD, Day 3",44.4 ng/mL
same,Cmin,"40 mg SDD QD, Day 3",0.5 ng/mL
same,Tmax,"40 mg SDD QD, Day 3",4.8 min
same,AUC24 h,"40 mg SDD QD, Day 4",101 ng·h/mL
same,Cmax,"40 mg SDD QD, Day 4",44.4 ng/mL
same,Cmin,"40 mg SDD QD, Day 4",0.5 ng/mL
same,Tmax,"40 mg SDD QD, Day 4",4.8 min
same,AUC24 h,"40 mg SDD QD, Day 5",101 ng·h/mL
same,Cmax,"40 mg SDD QD, Day 5",44.4 ng/mL
same,Cmin,"40 mg SDD QD, Day 5",0.5 ng/mL
same,Tmax,"40 mg SDD QD, Day 5",4.8 min
same,AUC24 h,"40 mg SDD QD, Day 6",101 ng·h/mL
same,Cmax,"40 mg SDD QD, Day 6",44.4 ng/mL
same,Cmin,"40 mg SDD QD, Day 6",0.5 ng/mL
same,Tmax,"40 mg SDD QD, Day 6",4.8 min
same,AUC24 h,"40 mg SDD QD, Day 7",101 ng·h/mL
same,Cmax,"40 mg SDD QD, Day 7",44.4 ng/mL
same,Cmin,"40 mg SDD QD, Day 7",0.5 ng/mL
same,Tmax,"40 mg SDD QD, Day 7",4.8 min
same,AUC24 h accumulation,40 mg SDD QD,104%
same,Cmax accumulation,40 mg SDD QD,101%
same,AUC24 h,"120 mg SDD QD, Day 1",210 ng·h/mL
same,Cmax,"120 mg SDD QD, Day 1",74.6 ng/mL
same,Tmax,"120 mg SDD QD, Day 1",37.8 min
same,AUC24 h,"120 mg SDD QD, Day 2",227 ng·h/mL
same,Cmax,"120 mg SDD QD, Day 2",76.1 ng/mL
same,Cmin,"120 mg SDD QD, Day 2",1.5 ng/mL
same,Tmax,"120 mg SDD QD, Day 2",37.8 min
same,AUC24 h,"120 mg SDD QD, Day 3",230 ng·h/mL
same,Cmax,"120 mg SDD QD, Day 3",76.3 ng/mL
same,Cmin,"120 mg SDD QD, Day 3",1.8 ng/mL
same,Tmax,"120 mg SDD QD, Day 3",37.8 min
same,AUC24 h,"120 mg SDD QD, Day 4",231 ng·h/mL
same,Cmax,"120 mg SDD QD, Day 4",76.4 ng/mL
same,Cmin,"120 mg SDD QD, Day 4",1.8 ng/mL
same,Tmax,"120 mg SDD QD, Day 4",37.8 min
same,AUC24 h,"120 mg SDD QD, Day 5",231 ng·h/mL
same,Cmax,"120 mg SDD QD, Day 5",76.4 ng/mL
same,Cmin,"120 mg SDD QD, Day 5",1.8 ng/mL
same,Tmax,"120 mg SDD QD, Day 5",37.8 min
same,AUC24 h,"120 mg SDD QD, Day 6",231 ng·h/mL
same,Cmax,"120 mg SDD QD, Day 6",76.4 ng/mL
same,Cmin,"120 mg SDD QD, Day 6",1.8 ng/mL
same,Tmax,"120 mg SDD QD, Day 6",37.8 min
same,AUC24 h,"120 mg SDD QD, Day 7",231 ng·h/mL
same,Cmax,"120 mg SDD QD, Day 7",76.4 ng/mL
same,Cmin,"120 mg SDD QD, Day 7",1.8 ng/mL
same,Tmax,"120 mg SDD QD, Day 7",37.8 min
same,AUC24 h accumulation,120 mg SDD QD,110%
same,Cmax accumulation,120 mg SDD QD,102%
same,AUC24 h,"360 mg SDD QD, Day 1",559 ng·h/mL
same,Cmax,"360 mg SDD QD, Day 1",162.0 ng/mL
same,Tmax,"360 mg SDD QD, Day 1",47.4 min
same,AUC24 h,"360 mg SDD QD, Day 2",616 ng·h/mL
same,Cmax,"360 mg SDD QD, Day 2",166.4 ng/mL
same,Cmin,"360 mg SDD QD, Day 2",4.7 ng/mL
same,Tmax,"360 mg SDD QD, Day 2",47.4 min
same,AUC24 h,"360 mg SDD QD, Day 3",628 ng·h/mL
same,Cmax,"360 mg SDD QD, Day 3",167.4 ng/mL
same,Cmin,"360 mg SDD QD, Day 3",5.4 ng/mL
same,Tmax,"360 mg SDD QD, Day 3",47.4 min
same,AUC24 h,"360 mg SDD QD, Day 4",631 ng·h/mL
same,Cmax,"360 mg SDD QD, Day 4",167.6 ng/mL
same,Cmin,"360 mg SDD QD, Day 4",5.7 ng/mL
same,Tmax,"360 mg SDD QD, Day 4",47.4 min
same,AUC24 h,"360 mg SDD QD, Day 5",631 ng·h/mL
same,Cmax,"360 mg SDD QD, Day 5",167.6 ng/mL
same,Cmin,"360 mg SDD QD, Day 5",5.7 ng/mL
same,Tmax,"360 mg SDD QD, Day 5",47.4 min
same,AUC24 h,"360 mg SDD QD, Day 6",631 ng·h/mL
same,Cmax,"360 mg SDD QD, Day 6",167.6 ng/mL
same,Cmin,"360 mg SDD QD, Day 6",5.7 ng/mL
same,Tmax,"360 mg SDD QD, Day 6",47.4 min
same,AUC24 h,"360 mg SDD QD, Day 7",631 ng·h/mL
same,Cmax,"360 mg SDD QD, Day 7",167.6 ng/mL
same,Cmin,"360 mg SDD QD, Day 7",5.7 ng/mL
same,Tmax,"360 mg SDD QD, Day 7",47.4 min
same,AUC24 h accumulation,360 mg SDD QD,113%
same,Cmax accumulation,360 mg SDD QD,103%
